Measurements as given in US7910588B2, “5-HT7 receptor antagonists” (Eli Lilly and Company, priority 2007, dated 2011).

Legend:
[1] = target: T1, 5-HT2C (Homo sapiens, UniProt P28335); test: Radioligand binding assay, 5-HT2C
T1 construct: expressed in transfected cells
T1 sequence (P28335 33-458): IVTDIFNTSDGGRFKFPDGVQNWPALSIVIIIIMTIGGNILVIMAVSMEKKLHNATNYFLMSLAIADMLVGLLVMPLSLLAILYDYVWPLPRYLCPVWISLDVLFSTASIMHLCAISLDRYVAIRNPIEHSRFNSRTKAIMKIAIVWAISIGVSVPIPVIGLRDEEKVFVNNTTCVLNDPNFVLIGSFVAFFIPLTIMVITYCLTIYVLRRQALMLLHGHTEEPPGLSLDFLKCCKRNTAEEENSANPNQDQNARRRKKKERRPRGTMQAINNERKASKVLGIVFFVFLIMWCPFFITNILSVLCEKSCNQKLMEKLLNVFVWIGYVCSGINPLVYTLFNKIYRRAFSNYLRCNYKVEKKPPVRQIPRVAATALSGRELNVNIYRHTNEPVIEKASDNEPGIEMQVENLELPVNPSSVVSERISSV
Protocol: [^3H] […] The reactions are incubated at room temperature for 3 hr. and then counted in a Trilux Microbeta™ scintillation counter to detect receptor-bound radioligand. Binding data are analyzed by computer-assisted 4 parameter fit analysis (ID Business Solutions Ltd, Guildford, Surrey, UK). […]
Affinity for other serotonin receptor subtypes as well as for alpha 1 & 2 adrenergic receptors can readily be determined by modification of the above described radioligand receptor binding assay using membranes derived from cells stably expressing the desired receptor subtype including the 5-HT1A, 5-HT1B, and 5-HT1D subtypes, as well as the 5-HT2A, 5-HT2B, 5-HT2C, 5-HT4, 5-HT7, and 5-HT6 receptor subtypes. […]

[2] = target: T2, 5-HT7 receptor (Homo sapiens, UniProt P34969); test: Functional antagonist assay: measurement of cAMP formation; assay type: cell-based
T2 construct: expressed in transfected cells
Protocol: For cAMP functional assays, the 5-HT7-expressing cells from above are grown in 150 cm^2 flasks and processed essentially as follows. The media is aspirated from the flasks and cells are washed with 1 mL PBS. The cells are released from the flask surface using enzyme free cell dissociation solution (Specialty media (www.chemicon.com) CAT#S-004-B) and resuspended in complete media. A sample of the cells is counted and the remainder is centrifuged as above for 3 min. The resulting cell pellet is resuspended in PBS at a concentration of 1×10^6 cells per mL and used directly in the cAMP assay as described.
The 5-HT7 receptor is functionally coupled to a G-protein as measured by the ability of serotonin and serotonergic drugs to stimulate cAMP production in CHO cells transfected with the 5-HT7 receptor. (Ruat, et al., Proceedings of the National Academy of Sciences (USA), 90:8547-8551, 1993.) Accordingly, functional receptor activity can be measured by measuring adenylate cyclase activity using a commercially available cell-based, homogeneous, time resolved fluorescence assay kit, as for example the kit produced by Cisbio-US, Inc. (Bedford, Mass.). Essentially, and using the protocol and reagents provided by the manufacturer, approximately 20,000 human 5-HT7 receptor-expressing AV-12 cells (as described above) are used with test compound dose concentrations in the range described for the binding assay. […] A cAMP standard curve is also run in every experiment. After the assay plates are read in an Envision™ instrument (Perkin-Elmer, Wellesley Mass.), the data are normalized to the standard curve and converted to percent inhibition for data analysis as described above for the receptor binding assay results. The Kb (nM) is calculated as a measure of the antagonist potency of the compound. Preferred compounds are those having percent inhibition >75%. Still other preferred compounds are those having Kb<50 nM.

T2 sequence (P34969 whole entry): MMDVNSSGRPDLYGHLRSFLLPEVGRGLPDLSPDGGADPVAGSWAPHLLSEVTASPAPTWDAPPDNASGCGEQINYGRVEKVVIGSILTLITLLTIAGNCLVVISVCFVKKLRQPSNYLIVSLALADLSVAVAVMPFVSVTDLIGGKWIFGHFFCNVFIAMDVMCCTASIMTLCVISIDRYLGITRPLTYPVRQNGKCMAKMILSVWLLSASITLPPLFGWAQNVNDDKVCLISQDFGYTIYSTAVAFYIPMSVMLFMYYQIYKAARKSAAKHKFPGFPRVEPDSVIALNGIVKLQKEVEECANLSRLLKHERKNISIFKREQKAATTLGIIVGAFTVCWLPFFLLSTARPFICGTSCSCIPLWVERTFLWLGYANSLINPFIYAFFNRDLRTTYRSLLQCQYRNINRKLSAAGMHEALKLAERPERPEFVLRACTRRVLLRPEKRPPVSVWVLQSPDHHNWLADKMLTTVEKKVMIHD

CCn1ncc(CN2CCN(c3cccnc3N3CCC(O)CC3)CC2)c1C.Cl [Example 1, 3′-[4-(1-Ethyl-5-methyl-1H-pyrazol-4-ylmethyl)-piperazin-1-yl]-3,4,5,6-tetrahydro-2H-[1,2]bipyridinyl-4-ol hydrochloride]
Ki [1]: > 8360 nM
Kb ([2]; antagonist potency, cAMP formation in 5-HT7 receptor-expressing AV-12 cells): ~2.97 nM
antagonist character ([2]; cAMP formation in 5-HT7 receptor-expressing AV-12 cells): full antagonist
inhibition ([2]; percent inhibition of cAMP formation in 5-HT7 receptor-expressing AV-12 cells): about 108%
